# Data from the OligoGym collection.
# After the bases stand the sugars from the 5' end (letter, count) and the backbone: PS all phosphorothioate, else s phosphorothioate and o phosphodiester by linkage. Methylation of C is not given here. e = 2'-O-(2-methoxyethyl) (MOE); k = constrained ethyl (cEt); d = 2'-deoxy (DNA); m = 2'-O-methyl
# Target: HSD17B13
# Details: ASO, HepaRG
Sequence,target mRNA inhibition (1 µM),other results
"TAGTTGGTAGCTTGCT (sugars k3 d10 k3, PS)",66%,target mRNA inhibition (0.02 µM): 7%; target mRNA inhibition (0.078 µM): 31%; target mRNA inhibition (0.313 µM): 46%; target mRNA inhibition (1.25 µM): 74%; target mRNA inhibition (5 µM): 94%
"TAGTTTGGTGGGCATG (sugars k3 d10 k3, PS)",28%,
"TATAACATGGCTGGCA (sugars k3 d10 k3, PS)",33%,
"TATAACTGAGCTAGAC (sugars k3 d10 k3, PS)",53%,
"TATACAGACTAAGGGA (sugars k3 d10 k3, PS)",24%,
"TATACATCAACTCCTC (sugars k3 d10 k3, PS)",39%,
"TATACCTGTTGCCTAG (sugars k3 d10 k3, PS)",11%,
"TATACTGAAGGCTGTG (sugars k3 d10 k3, PS)",44%,
"TATACTTTTCCGTCTC (sugars k3 d10 k3, PS)",71%,target mRNA inhibition (0.02 µM): 0%; target mRNA inhibition (0.078 µM): 22%; target mRNA inhibition (0.313 µM): 44%; target mRNA inhibition (1.25 µM): 79%; target mRNA inhibition (5 µM): 83%
"TATAGACTGGGTAGGA (sugars kkdddddddddkekek, PS)",38%,
"TATATACATCAACTCC (sugars k3 d10 k3, PS)",61%,
"TATATACCTGTTGCCT (sugars k3 d10 k3, PS)",55%,
"TATGAAGTTAGTATAG (sugars k3 d1 m1 d8 k3, PS)",27%,
"TATGAAGTTAGTATAG (sugars k3 d10 k3, PS)",30%,
"TATGTAATAGCCAGTA (sugars k3 d9 k3 e1, PS)",82%,target mRNA inhibition (0.02 µM): 23%; target mRNA inhibition (0.078 µM): 28%; target mRNA inhibition (0.313 µM): 53%; target mRNA inhibition (1.25 µM): 78%; target mRNA inhibition (5 µM): 93%
"TATGTAATAGCCAGTA (sugars k3 d10 k3, PS)",50%,
"TATGTGATTGAGTTCT (sugars kkdddddddddkekek, PS)",23%,
"TATTATGAGGATCTGG (sugars k3 d10 k3, PS)",44%,
"TATTATGTGATTGAGT (sugars k3 d9 k3 e1, PS)",51%,
"TATTATGTGATTGAGT (sugars kkdddddddddkekek, PS)",65%,
"TATTCCAGGATTTGCT (sugars k3 d10 k3, PS)",43%,
"TATTCTCCAACTCAGG (sugars k3 d10 k3, PS)",54%,
"TATTCTCTTGACAATG (sugars k3 d10 k3, PS)",47%,
"TATTCTGTGGCATGGC (sugars k3 d9 k3 e1, PS)",74%,target mRNA inhibition (0.02 µM): 10%; target mRNA inhibition (0.078 µM): 0%; target mRNA inhibition (0.313 µM): 21%; target mRNA inhibition (1.25 µM): 55%; target mRNA inhibition (5 µM): 68%
"TATTGATATACGATGG (sugars k3 d10 k3, PS)",16%,

Sequence,target mRNA inhibition (1 µM),other results
"TATTGTAGGGATTGAA (sugars k3 d10 k3, PS)",40%,
"TATTTAGCATTGCCTG (sugars k3 d10 k3, PS)",12%,
"TCAAAAAGGCCCAAGG (sugars k3 d10 k3, PS)",46%,
"TCAAAGCCTGTTGGAT (sugars k3 d10 k3, PS)",35%,
"TCAAAGTTTTGGGACC (sugars k3 d10 k3, PS)",42%,
"TCACAAAGTCCCTGAC (sugars k3 d10 k3, PS)",11%,
"TCACCTTATTAATATC (sugars k3 d10 k3, PS)",0%,
"TCACCTTTCATAATGT (sugars kkdddddddddkekek, PS)",31%,
"TCATAGTGGACTTCAT (sugars k3 d10 k3, PS)",36%,
"TCATATCCAGTAGGTG (sugars k3 d10 k3, PS)",32%,
"TCATCCTTGGTGCTGA (sugars k3 d10 k3, PS)",12%,
"TCATTATAAGCTAACT (sugars k3 d10 k3, PS)",0%,
"TCCAATATATACTGAC (sugars k3 d10 k3, PS)",72%,
"TCCACTTGAATTCTGT (sugars k3 d10 k3, PS)",32%,
"TCCACTTTTGGTGGAC (sugars k3 d10 k3, PS)",16%,
"TCCATAAAGCTGGATT (sugars k3 d10 k3, PS)",13%,
"TCCCAACCAAACTTCC (sugars k3 d1 m1 d8 k3, PS)",43%,
"TCCCAACCAAACTTCC (sugars k3 d9 k3 e1, PS)",24%,
"TCCCAACCAAACTTCC (sugars kkdddddddddkekek, PS)",27%,
"TCCCCTCAAATAGCCT (sugars k3 d10 k3, PS)",60%,
"TCCTAGGATGTTGACC (sugars k3 d10 k3, PS)",0%,
"TCCTATATACATCCAA (sugars k3 d10 k3, PS)",45%,
"TCCTGTGTTAGCTTTA (sugars kkdddddddddkekek, PS)",79%,target mRNA inhibition (0.02 µM): 18%; target mRNA inhibition (0.078 µM): 29%; target mRNA inhibition (0.313 µM): 54%; target mRNA inhibition (1.25 µM): 71%; target mRNA inhibition (5 µM): 86%
"TCCTTATACTGAAGGC (sugars k3 d10 k3, PS)",22%,
"TCGATCCTATATACAT (sugars k3 d10 k3, PS)",40%,
